These results are taken from ChEMBL document CHEMBL1130799, “Stability of acetal and non acetal-type analogs of artemisinin in simulated stomach acid” (Bioorg Med Chem Lett, 1998).

Data set [1] has as its system Plasmodium falciparum. Kind of data set: In vitro antimalarial activity against Plasmodium falciparum. Format: functional, organism-based.
Data set [2] is described as follows: Half life was determined. Type of data set: ADME. Conditions: rat.

Values after ≈ are worked out from the molar mass of the structure shown.

As for `C[C@H]1[C@@H](CCCC(=O)O)O[C@@H]2O[C@]3(C)CCC4[C@H](C)CC[C@@H]1[C@]42OO3` (stereo partly specified), the IC50 in data set [1] came to 1.3 ng/mL (≈ 3.67 nM). In data set [2], this molecule had a half-life of 16.1 days.
The corresponding values for `C[C@H]1[C@@H](Cc2ccccc2)O[C@@H]2O[C@]3(C)CCC4[C@H](C)CC[C@@H]1[C@]42OO3` (stereo partly specified) are less than 0.17 ng/mL and 11.9 days.
Take `C[C@@H]1CC[C@H]2[C@@H](C)CO[C@@H]3O[C@]4(C)CCC1[C@]32OO4` (stereo partly specified): 0.15 ng/mL (≈ 0.559 nM) corresponded to half-maximal inhibition in data set [1] (IC50). The half-life in data set [2] was 8.89 days.
The corresponding values for `C[C@H]1[C@@H](CCCCC(=O)O)O[C@@H]2O[C@]3(C)CCC4[C@H](C)CC[C@@H]1[C@]42OO3` (stereo partly specified) are 1.28 ng/mL (≈ 3.47 nM) and 15.6 days.
In turn, `C[C@H]1[C@@H](OCc2ccc(C(=O)O)cc2)O[C@@H]2OC3(C)CCC4[C@H](C)CC[C@@H]1[C@]42OO3` (single isomer, unassigned) had an IC50 in data set [1] of 1.38 ng/mL (≈ 3.3 nM). The half-life in data set [2] is 0.546 days.
The corresponding values for `CCCC[C@H]1O[C@@H]2O[C@]3(C)CC[C@H]4[C@H](C)CC[C@@H]([C@H]1C)[C@@]24OO3` are 1.15 ng/mL (≈ 3.54 nM) and 6.88 days.
For `C[C@H]1[C@@H](O)O[C@@H]2O[C@@]3(C)CC[C@H]4[C@H](C)CC[C@@H]1[C@@]24OO3` [ARTENIMOL], the half-life in data set [2] is 0.716 days.
Turning to `CCO[C@H]1O[C@@H]2OC3(C)CCC4[C@H](C)CC[C@@H]([C@H]1C)[C@]42OO3` (single isomer, unassigned), the half-inhibitory concentration (IC50) in data set [1] came to 0.16 ng/mL (≈ 0.512 nM). Besides, the half-life in data set [2] was 0.458 days.
As to `C[C@@H]1CC[C@H]2[C@@H](C)C(=O)O[C@@H]3O[C@@]4(C)CC[C@@H]1[C@]32OO4` [ARTEMISININ], the half-life in data set [2] is 0.979 days.
